Experiments:
HeLa cells = assay: Internalisation of fluorescein-labelled peptides, confocal fluorescence microscopy; type: cell-based
Experimental: (§1) FIG. 21. Transfection of peptides GSE4 and GSE4NLS1 in HeLa cells. Peptides GSE4 and GSE4NLS1 (SEQ ID No. 7) labelled with fluorescein and obtained by chemical synthesis were transfected into HeLa cells using the Proteojuice reagent and viewed in a confocal fluorescence microscope at 9, 24 and 48 hours after transfection.
as §1, with “22. Internalisation” for “21. Transfection”, “added to the culture medium of” for “transfected into”, “cells” for “cells using the Proteojuice reagent”
Given the ability of sequence NLS1 to contribute to the activity of GSE24.2, a synthetic peptide into which this sequence was placed in the 3′ region of peptide GSE4 was constructed as this was the peptide for which the greatest telomerase activation was obtained. The peptides obtained by chemical synthesis were labelled with fluorescein to facilitate their visualisation in a fluorescence microscope. Two experiments were performed in parallel, in one the peptides were transfected using Proteojuice reagent and in the other they were added directly to the culture medium. […] An important difference observed was that when the peptides were added directly to the culture medium, the peptide entered into a higher number of cells than when Proteojuice was used. The reagent provided greater effectiveness for internalisation but into a small number of cells.

[1] = system: promoter of c-myc in 293T cells; assay: c-myc promoter luciferase reporter activity; type: cell-based; details: 24 hours, relative to GSE24.2
Experimental: FIG. 20. Activity of constructions GSE24.2NLS1-3 and GSE24.2NLS2-3 on the c-myc promoter. The expression vectors for the constructions GSE24.2, GSE24.2N LS1-3 and GSE24.2NLS2-3 were transfected (using lipofectamine) into 293T cells together with the reporter gene of the promoter of c-myc, pXP1, and 24 hours later the luciferase activity was measured using a commercial kit. The values are expressed as relative activity, considering 1 as the value of luciferase with the empty expression vector pCDNA3myc.
With the aim of evaluating biological activity of the constructions containing the signals NLS1-3 and N LS2-3, they were transfected into 293T cells together with the reporter gene of the promoter of c-myc and the luciferase activity activated by both constructions GSE24.2NLS1-3 and GSE24.2NLS2-3 was evaluated in relation to GSE24.2.

[2] = system: AT2078 cells of patients with ataxia telangiectasia; assay: Damage to DNA in AT2078 cells: histone H2AX Ser139 foci after expression of GSE4 or SGSE4; type: cell-based, human; details: 200 cells
Experimental: FIG. 14. Determination of damage to DNA in AT cells after transfecting peptides GSE4 and SGSE4: AT2078 AT cells were infected with a lentiviral vector expressing GSE4, SGSE4 or a GFP empty vector and 24 hours later were fixed for processing and hybridised with an antibody against phosphorylated histone H2AX (Ser139). Control C-1787 cells were used as the negative control. Next they were hybridised with a fluorescein-labelled antibody and were stained with DAPI to locate the nuclei.
As the peptide denominated GSE4 was the smallest sized of the peptides with ability to inhibit damage to DNA, we studied if another peptide with a similar sequence localised in the sequence of peptide GSE24.2 had the same activity or if that activity was specific to GSE4. Peptide SGSE4 (SEQ ID No. 15) is similar to GSE4 in sequence (amino acids LDPK/LDKP that constitute consensus sequences for pseudouridine synthases) and size and is found in the TRUBII domain of dyskerin. Cell lines AT2078 of patients with ataxia telangiectasia were used for this test. Cell line C-1787 was used as the control cell line. The cells were infected with the bicistronic lentiviral vector pCMV-GFP-GSE4, SGSE4 or GFP. After 48 hours of infection the cells were fixed with formaldehyde and then permeabilized by treating them with Triton X-100. The damage to DNA was estimated by studying the signal after hybridisation of the cells with an antibody against histone H2AX Ser139 and subsequent hybridisation with an antibody bound to fluorescein. The number of foci with stain for histone H2AX per nucleus was determined by confocal microscopy in a total of 200 cells and the data represented as a percentage of cells with a specific number of foci.

GFINLDKPSNPKRKR (GSE4NLS1-3; listed as Homo sapiens)
entry into cells (HeLa cells; peptide simply added to the culture medium): entered the cells
entry into cells (HeLa cells; transfected using Proteojuice reagent): entered the cells

GFINLDKPSNPSSHEVVAWIRRILRVEKTGHSGTLDPKVTGCLIVCIERATRLVKKRKR (GSE24.2NLS1-3; listed as Homo sapiens) [GSE24.2 with NLS1 in the 3′ position]
activation of expression of the promoter of c-myc (luciferase) [1]: more effectively than GSE24.2

HSGTLDPKVTG (listed as Homo sapiens) [SGSE4, reference compound]
AT cells in which overall damage to DNA is corrected [2]: not able to correct the damage to DNA

B1: GFINLDKPSNPSSHEVVAWIRRILRVEKTGHSGTLDPKVTGCLIVCIERATRLVKKKEKKKSK (peptide, listed as Homo sapiens)
chain: GFINLDKPSNPSSHEVVAWIRRILRVEKTGHSGTLDPKVTGCLIVCIERATRLVKKKEKKKSK
modifications: GSE24.2NLS2-3
notes: GSE24.2 with NLS2 in the 3′ position
activation of expression of the promoter of c-myc (luciferase) [1]: more effectively than GSE24.2

Source: patent US20160340656A1, “PEPTIDES DERIVED FROM GSE 24.2 FOR TREATING DISEASES CAUSED BY OXIDATIVE STRESS AND DAMAGE TO DNA” (CONSEJO SUPERIOR DE INVESTIGACIONES CIENTÍFICAS (CSIC), priority 2013, published 2016)
